Assay results reported in ChEMBL document CHEMBL1201862, “PubChem BioAssay data set” (2004).
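The compound was tested at five concentrations on cells cultured in 96-well plates, with a 48-hour exposure period. GI50 marks 50% less growth.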 The source made the active and inactive calls. Cut-off read from the data, not from the text of the source: active = GI50 up to about 1.1 µM and inactive = higher.

Key:
Assay in all cases: DTP human tumour cell line panel, 48 h
[1] = test system: 786-0
[2] = test system: A549
[3] = test system: ACHN
[4] = test system: CAKI-1
[5] = test system: CCRF-CEM
[6] = test system: COLO 205
[7] = test system: DLD-1
[8] = test system: DMS-114
[9] = test system: DMS-273
[10] = test system: EKVX
[11] = test system: HCC 2998
[12] = test system: HCT-116
[13] = test system: HCT-15
[14] = test system: HL-60
[15] = test system: HOP-18
[16] = test system: HOP-62
[17] = test system: HOP-92
[18] = test system: HT-29
[19] = test system: IGROV-1
[20] = test system: K562
[21] = test system: KM-20L2
[22] = test system: KM12
[23] = test system: LOX IMVI
[24] = test system: LXFL 529
[25] = test system: M14
[26] = test system: M19-MEL
[27] = test system: MOLT-4
[28] = test system: Malme-3M
[29] = test system: NCI-H226
[30] = test system: NCI-H23
[31] = test system: NCI-H460
[32] = test system: NCI-H522
[33] = test system: OVCAR-3
[34] = test system: OVCAR-4
[35] = test system: OVCAR-8
[36] = test system: RPMI-8226
[37] = test system: RXF 393
[38] = test system: SF-268
[39] = test system: SF-295
[40] = test system: SF-539
[41] = test system: SK-MEL-28
[42] = test system: SK-MEL-2
[43] = test system: SK-MEL-5
[44] = test system: SK-OV-3
[45] = test system: SN12C
[46] = test system: SNB-19
[47] = test system: SNB-75
[48] = test system: SNB-78
[49] = test system: SR
[50] = test system: SW-620
[51] = test system: TK-10
[52] = test system: U-251
[53] = test system: UACC-62
[54] = test system: UO-31
[55] = test system: XF498
[56] = test system: A498
[57] = test system: OVCAR-5
[58] = test system: UACC-257

COc1ccc(-c2cc(O)c3cc4c(cc3n2)OCO4)c(OC)c1OC
GI50 [1]: > 100 µM (inactive)
GI50 [2]: > 100 µM (inactive)
GI50 [3]: 76.2 µM (inactive)
GI50 [4]: > 100 µM (inactive)
GI50 [5]: 76.9 µM (inactive)
GI50 [6]: 53.1 µM (inactive)
GI50 [7]: > 100 µM (inactive)
GI50 [8]: 29.4 µM (inactive)
GI50 [9]: 38.2 µM (inactive)
GI50 [10]: > 100 µM (inactive)
GI50 [11]: > 100 µM (inactive)
GI50 [12]: > 100 µM (inactive)
GI50 [13]: > 100 µM
GI50 [14]: 37.3 µM (inactive)
GI50 [15]: 96.6 µM (inactive)
GI50 [16]: 87.1 µM (inactive)
GI50 [17]: 70.3 µM (inactive)
GI50 [18]: > 100 µM (inactive)
GI50 [19]: > 100 µM (inactive)
GI50 [20]: 43.9 µM (inactive)
GI50 [21]: > 100 µM (inactive)
GI50 [22]: 68.9 µM (inactive)
GI50 [23]: > 100 µM (inactive)
GI50 [24]: > 100 µM (inactive)
GI50 [25]: 68.1 µM (inactive)
GI50 [26]: 95.1 µM (inactive)
GI50 [27]: 62.7 µM (inactive)
GI50 [28]: 40.4 µM (inactive)
GI50 [29]: > 100 µM (inactive)
GI50 [30]: > 100 µM (inactive)
GI50 [31]: 33.6 µM (inactive)
GI50 [32]: 96.2 µM (inactive)
GI50 [33]: > 100 µM (inactive)
GI50 [34]: > 100 µM (inactive)
GI50 [35]: > 100 µM (inactive)
GI50 [36]: 82.8 µM (inactive)
GI50 [37]: > 100 µM (inactive)
GI50 [38]: > 100 µM (inactive)
GI50 [39]: 76.6 µM (inactive)
GI50 [40]: > 100 µM (inactive)
GI50 [41]: 96.6 µM (inactive)
GI50 [42]: > 100 µM (inactive)
GI50 [43]: 41.5 µM (inactive)
GI50 [44]: 50.8 µM (inactive)
GI50 [45]: > 100 µM (inactive)
GI50 [46]: > 100 µM (inactive)
GI50 [47]: 27.7 µM (inactive)
GI50 [48]: > 100 µM (inactive)
GI50 [49]: 24.4 µM (inactive)
GI50 [50]: 84.9 µM (inactive)
GI50 [51]: > 100 µM (inactive)
GI50 [52]: > 100 µM (inactive)
GI50 [53]: 47.6 µM (inactive)
GI50 [54]: > 100 µM (inactive)
GI50 [55]: 66.5 µM (inactive)

Cc1ncc(CI)c(CI)c1O
GI50 [1]: 16.9 µM (inactive)
GI50 [56]: > 100 µM (inactive)
GI50 [4]: 63.2 µM (inactive)
GI50 [5]: 3.93 µM (inactive)
GI50 [6]: > 100 µM (inactive)
GI50 [7]: 24.7 µM (inactive)
GI50 [8]: > 100 µM (inactive)
GI50 [9]: 14.8 µM (inactive)
GI50 [11]: 18.8 µM (inactive)
GI50 [12]: 15.6 µM (inactive)
GI50 [14]: 2.22 µM (inactive)
GI50 [16]: 17.2 µM (inactive)
GI50 [17]: > 100 µM (inactive)
GI50 [19]: > 100 µM (inactive)
GI50 [20]: 5.85 µM (inactive)
GI50 [24]: > 100 µM (inactive)
GI50 [25]: > 100 µM (inactive)
GI50 [26]: > 100 µM (inactive)
GI50 [27]: 12.7 µM (inactive)
GI50 [28]: 17.5 µM (inactive)
GI50 [29]: 2.39 µM (inactive)
GI50 [30]: 19.4 µM (inactive)
GI50 [31]: > 100 µM (inactive)
GI50 [32]: 3.34 µM (inactive)
GI50 [34]: > 100 µM (inactive)
GI50 [36]: 6.7 µM (inactive)
GI50 [38]: 24.3 µM (inactive)
GI50 [40]: 23.4 µM (inactive)
GI50 [41]: 18 µM (inactive)
GI50 [42]: 21.3 µM (inactive)
GI50 [44]: > 100 µM (inactive)
GI50 [45]: 17.2 µM (inactive)
GI50 [47]: 16.8 µM (inactive)
GI50 [48]: > 100 µM (inactive)
GI50 [49]: 12.6 µM (inactive)
GI50 [53]: > 100 µM (inactive)
GI50 [54]: 2.5 µM (inactive)
GI50 [55]: 20.1 µM (inactive)

CCNC(=O)CCN(C(=O)O)S(=O)(=O)c1ccc(NC(=O)c2ccccc2)cc1
GI50 [1]: 10.3 µM (inactive)
GI50 [56]: > 100 µM (inactive)
GI50 [2]: > 100 µM (inactive)
GI50 [3]: > 100 µM (inactive)
GI50 [4]: > 100 µM (inactive)
GI50 [5]: 59.4 µM (inactive)
GI50 [6]: > 100 µM (inactive)
GI50 [7]: > 100 µM (inactive)
GI50 [8]: > 100 µM (inactive)
GI50 [9]: 23.8 µM (inactive)
GI50 [10]: > 100 µM (inactive)
GI50 [11]: > 100 µM (inactive)
GI50 [12]: 35.6 µM (inactive)
GI50 [13]: > 100 µM
GI50 [14]: > 100 µM (inactive)
GI50 [15]: > 100 µM (inactive)
GI50 [16]: > 100 µM (inactive)
GI50 [17]: > 100 µM (inactive)
GI50 [18]: 50.8 µM (inactive)
GI50 [19]: > 100 µM (inactive)
GI50 [20]: 86.3 µM (inactive)
GI50 [21]: > 100 µM (inactive)
GI50 [22]: > 100 µM (inactive)
GI50 [23]: 22.6 µM (inactive)
GI50 [24]: > 100 µM (inactive)
GI50 [25]: > 100 µM (inactive)
GI50 [26]: 77.6 µM (inactive)
GI50 [27]: > 100 µM (inactive)
GI50 [28]: > 100 µM (inactive)
GI50 [29]: > 100 µM (inactive)
GI50 [30]: > 100 µM (inactive)
GI50 [31]: > 100 µM (inactive)
GI50 [32]: > 100 µM (inactive)
GI50 [33]: > 100 µM (inactive)
GI50 [34]: > 100 µM (inactive)
GI50 [57]: > 100 µM (inactive)
GI50 [35]: > 100 µM (inactive)
GI50 [36]: > 100 µM (inactive)
GI50 [38]: > 100 µM (inactive)
GI50 [39]: > 100 µM (inactive)
GI50 [40]: > 100 µM (inactive)
GI50 [41]: > 100 µM (inactive)
GI50 [42]: > 100 µM (inactive)
GI50 [43]: > 100 µM (inactive)
GI50 [44]: > 100 µM (inactive)
GI50 [45]: > 100 µM (inactive)
GI50 [46]: > 100 µM (inactive)
GI50 [47]: > 100 µM (inactive)
GI50 [48]: > 100 µM (inactive)
GI50 [49]: > 100 µM (inactive)
GI50 [50]: 15.5 µM (inactive)
GI50 [51]: > 100 µM (inactive)
GI50 [52]: > 100 µM (inactive)
GI50 [58]: > 100 µM (inactive)
GI50 [53]: > 100 µM (inactive)
GI50 [54]: > 100 µM (inactive)
GI50 [55]: > 100 µM (inactive)

CC1(C)CC(/C=C2/OC(=O)c3ccccc32)=C(C(N)=O)C(=O)O1
GI50 [1]: > 100 µM (inactive)
GI50 [2]: > 100 µM (inactive)
GI50 [4]: > 100 µM (inactive)
GI50 [5]: > 100 µM (inactive)
GI50 [6]: 30.8 µM (inactive)
GI50 [7]: > 100 µM (inactive)
GI50 [8]: > 100 µM (inactive)
GI50 [9]: > 100 µM (inactive)
GI50 [10]: > 100 µM (inactive)
GI50 [11]: > 100 µM (inactive)
GI50 [12]: > 100 µM (inactive)
GI50 [13]: > 100 µM
GI50 [16]: > 100 µM (inactive)
GI50 [18]: > 100 µM (inactive)
GI50 [19]: > 100 µM (inactive)
GI50 [20]: > 100 µM (inactive)
GI50 [21]: > 100 µM (inactive)
GI50 [22]: > 100 µM (inactive)
GI50 [23]: > 100 µM (inactive)
GI50 [24]: > 100 µM (inactive)
GI50 [25]: > 100 µM (inactive)
GI50 [26]: > 100 µM (inactive)
GI50 [27]: > 100 µM (inactive)
GI50 [28]: > 100 µM (inactive)
GI50 [29]: > 100 µM (inactive)
GI50 [30]: > 100 µM (inactive)
GI50 [31]: > 100 µM (inactive)
GI50 [32]: > 100 µM (inactive)
GI50 [33]: > 100 µM (inactive)
GI50 [34]: 72.1 µM (inactive)
GI50 [57]: > 100 µM (inactive)
GI50 [35]: > 100 µM (inactive)
GI50 [36]: > 100 µM (inactive)
GI50 [38]: > 100 µM (inactive)
GI50 [39]: > 100 µM (inactive)
GI50 [40]: > 100 µM (inactive)
GI50 [41]: > 100 µM (inactive)
GI50 [42]: > 100 µM (inactive)
GI50 [43]: > 100 µM (inactive)
GI50 [44]: > 100 µM (inactive)
GI50 [45]: > 100 µM (inactive)
GI50 [46]: > 100 µM (inactive)
GI50 [47]: > 100 µM (inactive)
GI50 [48]: > 100 µM (inactive)
GI50 [49]: > 100 µM (inactive)
GI50 [50]: > 100 µM (inactive)
GI50 [52]: > 100 µM (inactive)
GI50 [58]: > 100 µM (inactive)
GI50 [53]: > 100 µM (inactive)
GI50 [54]: 83.9 µM (inactive)
GI50 [55]: > 100 µM (inactive)
